# Patent publication US20220144838A1, “Compounds as Inhibitors of Macrophage Migration Inhibitory Factor” (NANJING IMMUNOPHAGE BIOTECH CO., LTD., priority 2019, published 2022)
# Molecular target: T1, MIF (Homo sapiens, UniProt P14174)
# T1 sequence (P14174 2-115 limits assumed): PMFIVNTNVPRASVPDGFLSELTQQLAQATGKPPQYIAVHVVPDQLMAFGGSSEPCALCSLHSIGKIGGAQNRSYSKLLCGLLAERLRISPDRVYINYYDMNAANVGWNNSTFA
# Assay: MIF tautomerase assay using pHPP as substrate
# Assay type: biochemical
# Conditions: inhibition of the MIF enzyme in vitro; mean of multiple test results; read-out: Tautomerase Inhibition pIC50 (converted)
# In short: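 Cell-free keto-to-enol tautomerization of pHPP, enol product detected spectrophotometrically as borate complex. Final 3 nM MIF and 1.5 mM ketonic pHPP in DPBS/boric acid buffer with 0.025% BSA and 300 μM CHAPS, pH 6.0, room temperature; initial rates from absorbance slopes give mean pIC50.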
row,IC50,SMILES
1,1000 to 9770 nM,"NCCn1cnc2c(-n3ncc4ccccc43)nc(N3CCN(c4ccc(O)cc4)CC3)nc21 [Example 137, 4-(4-(9-(2-aminoethyl)-6-(1H-indazol-1-yl)-9H-purin-2-yl)piperazin-1-yl)phenol]"
2,100 to 977 nM,"CC(=O)NCCn1cnc2c(-n3ncc4ccccc43)nc(N3CCN(c4ccc(O)cc4)CC3)nc21 [Example 138, N-(2-(2-(4-(4-hydroxyphenyl)piperazin-1-yl)-6-(1H-indazol-1-yl)-9H-purin-9-yl)ethyl)acetamide]"
3,> 10000 nM,"O=C(O)Cn1cnc2c(-n3ncc4ccccc43)nc(N3CCN(c4ccc5[nH]ncc5c4)CC3)nc21 [Example 140, 2-(2-(4-(1H-indazol-5-yl)piperazin-1-yl)-6-(1H-indazol-1-yl)-9H-purin-9-yl)acetic acid]"
4,10 to 97.7 nM,"CC(C)(C(=O)O)n1cnc2c(-n3ncc4ccccc43)nc(N3CCN(c4ccc(O)cn4)CC3)nc21 [Example 141, 2-(2-(4-(5-hydroxypyridin-2-yl)piperazin-1-yl)-6-(1H-indazol-1-yl)-9H-purin-9-yl)-2-methylpropanoic acid]"
5,10 to 97.7 nM,"CCC(C(=O)O)n1cnc2c(-n3ncc4ccccc43)nc(N3CCN(c4ccc(O)cn4)CC3)nc21 (stereo not drawn) [Example 142, 2-(2-(4-(5-hydroxypyridin-2-yl)piperazin-1-yl)-6-(1H-indazol-1-yl)-9H-purin-9-yl)butanoic acid]"
6,10 to 97.7 nM,"CC(C(=O)O)n1cnc2c(-n3ncc4ccccc43)nc(N3CCN(c4ccc(O)cn4)CC3)nc21 (stereo not drawn) [Example 145, 2-(2-(4-(5-hydroxypyridin-2-yl)piperazin-1-yl)-6-(1H-indazol-1-yl)-9H-purin-9-yl)propanoic acid]"
7,10 to 97.7 nM,"O=C(O)CCCn1cnc2c(-n3ncc4ccccc43)nc(N3CCN(c4ccc(O)cc4)CC3)nc21 [Example 146, 4-(2-(4-(4-hydroxyphenyl)piperazin-1-yl)-6-(1H-indazol-1-yl)-9H-purin-9-yl)butanoic acid]"
8,10 to 97.7 nM,"O=C(O)CCCCn1cnc2c(-n3ncc4ccccc43)nc(N3CCN(c4ccc(O)cn4)CC3)nc21 [Example 149, 5-(2-(4-(5-hydroxypyridin-2-yl)piperazin-1-yl)-6-(1H-indazol-1-yl)-9H-purin-9-yl)pentanoic acid]"
9,10 to 97.7 nM,"O=C(O)CCCCn1cnc2c(-n3ncc4ccccc43)nc(N3CCN(c4ccc(O)cc4)CC3)nc21 [Example 150, 5-(2-(4-(4-hydroxyphenyl)piperazin-1-yl)-6-(1H-indazol-1-yl)-9H-purin-9-yl)pentanoic acid]"
10,10 to 97.7 nM,"O=C(O)C(CC1CC1)n1cnc2c(-n3ncc4ccccc43)nc(N3CCN(c4ccc(O)cn4)CC3)nc21 (stereo not drawn) [Example 151, 3-cyclopropyl-2-(2-(4-(5-hydroxypyridin-2-yl)piperazin-1-yl)-6-(1H-indazol-1-yl)-9H-purin-9-yl)propanoic acid]"
11,10 to 97.7 nM,"OCCn1cnc2c(-n3nc(CO)c4ccccc43)nc(N3CCN(c4ccc(O)cc4)CC3)nc21 [Example 152, 4-(4-(9-(2-hydroxyethyl)-6-(3-(hydroxymethyl)-1H-indazol-1-yl)-9H-purin-2-yl)piperazin-1-yl)phenol]"
12,1000 to 9770 nM,"Cc1cc(N2CCN(c3nc(-n4ncc5ccccc54)c4ncn(CCO)c4n3)CC2)ccc1O [Example 153, 4-(4-(9-(2-hydroxyethyl)-6-(1H-indazol-1-yl)-9H-purin-2-yl)piperazin-1-yl)-2-methylphenol]"
13,> 10000 nM,"OCCn1cnc2c(-n3ncc4ccccc43)nc(N3CCN(c4ccc(CO)cn4)CC3)nc21 [Example 154, 2-(2-(4-(5-(hydroxymethyl)pyridin-2-yl)piperazin-1-yl)-6-(1H-indazol-1-yl)-9H-purin-9-yl)ethan-1-ol]"
14,100 to 977 nM,"OCCn1cnc2c(-n3ncc4ccccc43)nc(N3CCC(O)(c4ccc(O)cc4)CC3)nc21 [Example 158, 1-(9-(2-hydroxyethyl)-6-(1H-indazol-1-yl)-9H-purin-2-yl)-4-(4-hydroxyphenyl)piperidin-4-ol]"

# Further lines, the compound ahead of its results:
row,SMILES,IC50
1,"COC(=O)Cn1cnc2c(-n3ncc4ccccc43)nc(N3CCN(c4ccc(O)cc4)CC3)nc21 [Example 131, methyl 2-(2-(4-(4-hydroxyphenyl)piperazin-1-yl)-6-(1H-indazol-1-yl)-9H-purin-9-yl)acetate]",100 to 977 nM
2,"O=C(O)CNC(=O)Cn1cnc2c(-n3ncc4ccccc43)nc(N3CCN(c4ccc(O)cc4)CC3)nc21 [Example 132, 2-(2-(2-(4-(4-hydroxyphenyl)piperazin-1-yl)-6-(1H-indazol-1-yl)-9H-purin-9-yl)acetamido)acetic acid]",10 to 97.7 nM
3,"OCC(CO)n1cnc2c(N3CCc4ccccc43)nc(N3CCN(c4ccc(O)cc4)CC3)nc21 [Example 133, 2-(2-(4-(4-hydroxyphenyl)piperazin-1-yl)-6-(indolin-1-yl)-9H-purin-9-yl)propane-1,3-diol]",100 to 977 nM
4,"N#Cc1nn(-c2nc(N3CCN(c4ccc(O)cc4)CC3)nc3c2ncn3CC(=O)O)c2ccccc12 [Example 134, 2-(2-(4-(4-hy-droxyphenyl)piperazin-1-yl)-6-(3-cyano-1H-indazol-1-yl)-9H-purin-9-yl)acetic acid]",10 to 97.7 nM
5,O=C(O)Cn1cnc2c(-n3nc(-c4nnn[nH]4)c4ccccc43)nc(N3CCN(c4ccc(O)cc4)CC3)nc21 [Example 135],10 to 97.7 nM
6,"O=C1c2ccccc2C(=O)N1CCn1cnc2c(-n3ncc4ccccc43)nc(N3CCN(c4ccc(O)cc4)CC3)nc21 [Example 136, 2-(2-(2-(4-(4-hydroxyphenyl)piperazin-1-yl)-6-(1H-indazol-1-yl)-9H-purin-9-yl)ethyl)isoindoline-1,3-dione]",1000 to 9770 nM
7,"CS(=O)(=O)NCCn1cnc2c(-n3ncc4ccccc43)nc(N3CCN(c4ccc(O)cc4)CC3)nc21 [Example 139, N-(2-(2-(4-(4-hydroxyphenyl)piperazin-1-yl)-6-(1H-indazol-1-yl)-9H-purin-9-yl)ethyl)methanesulfonamide]",1000 to 9770 nM
8,"CN(C)Cc1cccc2c1cnn2-c1nc(N2CCN(c3ccc(O)cc3)CC2)nc2c1ncn2CC(=O)O [Example 143, 2-(6-(4-((dimethylamino)methyl)-1H-indazol-1-yl)-2-(4-(4-hydroxyphenyl)piperazin-1-yl)-9H-purin-9-yl)acetic acid]",100 to 977 nM
9,"CN(C)Cc1cccc2c1cnn2-c1nc(N2CCN(c3ccc(O)cn3)CC2)nc2c1ncn2CC(=O)O [Example 144, 2-(6-(4-((dimethylamino)methyl)-1H-indazol-1-yl)-2-(4-(5-hydroxypyridin-2-yl)piperazin-1-yl)-9H-purin-9-yl)acetic acid]",100 to 977 nM
10,"C=CCc1nn(-c2nc(N3CCN(c4ccc(O)cc4)CC3)nc3c2ncn3CC(=O)O)c2ccccc12 [Example 147, 2-(6-(3-allyl-1H-indazol-1-yl)-2-(4-(4-hydroxyphenyl)piperazin-1-yl)-9H-purin-9-yl)acetic acid]",1000 to 9770 nM
11,"Nc1nc(N2CCC(O)(c3ccc(O)cc3)CC2)nc2c1ncn2-c1ccncc1 [Example 155, 1-(6-amino-9-(pyridin-4-yl)-9H-purin-2-yl)-4-(4-hydroxyphenyl)piperidin-4-ol]",10 to 97.7 nM
12,"Nc1nc(N2CC=C(c3ccc(O)cc3)CC2)nc2c1ncn2-c1ccncc1 [Example 156, 4-(1-(6-amino-9-(pyridin-4-yl)-9H-purin-2-yl)-1,2,3,6-tetrahydropyridin-4-yl)phenol]",> 10000 nM
13,"Nc1nc(N2CCC(c3ccc(O)cc3)CC2)nc2c1ncn2-c1ccncc1 [Example 157, 4-(1-(6-amino-9-(pyridin-4-yl)-9H-purin-2-yl)piperidin-4-yl)phenol]",10 to 97.7 nM
14,"OCCn1cnc2c(-n3ncc4ccccc43)nc(N3CC=C(c4ccc(O)cc4)CC3)nc21 [Example 159, 4-(1-(9-(2-hydroxyethyl)-6-(1H-indazol-1-yl)-9H-purin-2-yl)-1,2,3,6-tetrahydropyridin-4-yl)phenol]",> 10000 nM
15,"Cc1nc(N2CCC(O)(c3ccc(O)cc3)CC2)nc2c1ncn2CCCCC(=O)O [Example 160, 5-(2-(4-hydroxy-4-(4-hydroxyphenyl)piperidin-1-yl)-6-methyl-9H-purin-9-yl)pentanoic acid]",> 10000 nM
16,"O=C(O)Cn1cnc2c(-n3ncc4ccccc43)nc(N3CCC(O)(c4ccccc4)C3)nc21 (stereo not drawn) [Example 161, 2-(2-(3-hydroxy-3-phenylpyrrolidin-1-yl)-6-(1H-indazol-1-yl)-9H-purin-9-yl)acetic acid]",> 10000 nM
17,"COC(=O)CNc1nc(N2CCN(c3ccc(O)cc3)CC2)nc2c1ncn2-c1ccncc1 [Example 162, Methyl (2-(4-(4-hydroxyphenyl)piperazin-1-yl)-9-(pyridin-4-yl)-9H-purin-6-yl)glycinate]",100 to 977 nM
18,"O=C(O)CNc1nc(N2CCN(c3ccc(O)cc3)CC2)nc2c1ncn2-c1ccncc1 [Example 163, (2-(4-(4-hydroxyphenyl)piperazin-1-yl)-9-(pyridin-4-yl)-9H-purin-6-yl)glycine]",10 to 97.7 nM
19,"O=C(O)C1CCN(c2nc(N3CCN(c4ccc(O)cc4)CC3)nc3c2ncn3-c2ccncc2)C1 (stereo not drawn) [Example 164, 1-(2-(4-(4-hydroxyphenyl)piperazin-1-yl)-9-(pyridin-4-yl)-9H-purin-6-yl)pyrrolidine-3-carboxylic acid]",10 to 97.7 nM
20,"CN(CCC(=O)O)c1nc(N2CCN(c3ccc(O)cc3)CC2)nc2c1ncn2-c1ccncc1 [Example 165, 3-((2-(4-(4-hydroxyphenyl)piperazin-1-yl)-9-(pyridin-4-yl)-9H-purin-6-yl)(methyl)amino)propanoic acid]",10 to 97.7 nM
21,"CN(CC(=O)O)c1nc(N2CCN(c3ccc(O)cc3)CC2)nc2c1ncn2-c1ccncc1 [Example 166, 3N-(2-(4-(4-hydroxyphenyl)piperazin-1-yl)-9-(pyridin-4-yl)-9H-purin-6-yl)-N-methylglycine]",10 to 97.7 nM
22,"O=C(O)C1CCCN1c1nc(N2CCN(c3ccc(O)cc3)CC2)nc2c1ncn2-c1ccncc1 (stereo not drawn) [Example 167, (2-(4-(4-hydroxyphenyl)piperazin-1-yl)-9-(pyridin-4-yl)-9H-purin-6-yl)proline]",10 to 97.7 nM
